Source: patent US20170191058A1, “PERFORIN 2 DEFENSE AGAINST INVASIVE AND MULTIDRUG RESISTANT PATHOGENS” (priority 2012, published 2017)

B1: P-2-GFP: P-2 fused via a linker at the C-terminus of its cytoplasmic domain to GFP, expressed by transfection (protein)
chain: DKPLGETGTTGFQICKNALKLPVLEVLPGGGWDNLRNVDMGRVMDLTYTNCKTTEDGQYIIPDEVYTIPQKESNLEMNSEVLESWMNYQSTTSLSINTELALFSRVNGKFSTEFQRMKTLQVKDQAVTTRVQVRNRIYTVKTTPTSELSLGFTKALMDICDQLEKNQTKMATYLAELLILNYGTHVITSVDAGAALVQEDHVRSSFLLDNQNSQNTVTASAGIAFLNIVNFKVETDYISQTSLTKDYLSNRTNSRVQSFGGVPFYPGITLETWQKGITNHLVAIDRAGLPLHFFIKPDKLPGLPGPLVKKLSKTVETAVRHYYTFNTHPGCTNVDSPNFNFQANMDDDSCDAKVTNFTFGGVYQECTELSGDVLCQNLEQKNLLTGDFSCPPGYSPVHLLSQTHEEGYSRLECKKKCTLKIFCKTVCEDVFRVAKAEFRAYWCVAAGQVPDNSGLLFGGVFTDKTINPMTNAQSCPAGYIPLNLFESLKVCVSLDYELGFKFSVPFGGFFSCIMGNPLVNSDTAKDVRAPSLKKCPGGFSQHLAVISDGCQVSYCVKAGIFTGGSLLPVRLPPYTKPPLMSQVATNTVIVTNSETARSWIKDPQTNQWKLGEPLELRRAMTVIHGDSNGMSGGEAAGITLGVTIALGIVITLAIYGTRKYKKKEYQEIEEQESLVGSLATDATVLNGEEDPSPA
modifications: left off: large carriers

How the values were obtained:
M. smegmatis = assay: Gentamycin protection assay: M. smegmatis in IFN-preinduced mEF; type: cell-based, Mycobacterium smegmatis; conditions: uninduced mEF delayed by about 16 h
Protocol: Murine embryonic fibroblasts (FIG. 14A), a rectal cancer cell line (FIG. 14B), myoblast cell line (FIG. 14C), and an ovarian cell line (FIG. 14D) were treated for 14 hours with 100 U/ml interferon-α, interferon-β, and interferon-γ treated. LPS was treated at 1 ng/ml; IL-1α at 10 U/ml, IL-1β at 1 ng/ml, and TNFα at 20 ng/mL. A human embryonic kidney cell line (FIG. 14E) and cervical cancer cell line (FIG. 14F) were treated with human IFN-α at 150 U/ml, IFN-β and IFN-γ at 100 U/ml. The BV2 microglial cell line was stimulated with 100 U/ml of murine Interferon-γ for 14 hours to upregulate P-2 mRNA and protein. mEF treated with IFN-γ for 14 hours (mEF), or IFN-γ for 14 hours followed by 1 hour of treatment with […] MG-132 (mEF+MG132) (FIG. 14G). Human primary keratinocytes were analyzed for protein expression with indicated recombinant human IFN treatment (FIG. 14H). mEF were treated with E. coli or M. smegmatis. At indicated time points, cells were harvested and analyzed for P-2 mRNA and compared to uninfected controls by TAQMAN™ PCR. (FIG. 14I) mEF were either not stimulated, or stimulated for 14 hours with IFN-γ at 100 U/ml. After stimulation, mEF were infected with M. smegmatis and analyzed for colony forming units at indicated time points. […]

P-2 mRNA = P-2 mRNA expression in mEF by TAQMAN PCR after cytokine treatment; type: cell-based, murine; conditions: added singly, 14 hours
Protocol: Murine embryonic fibroblasts (FIG. 14A), a rectal cancer cell line (FIG. 14B), myoblast cell line (FIG. 14C), and an ovarian cell line (FIG. 14D) were treated for 14 hours with 100 U/ml interferon-α, interferon-β, and interferon-γ treated. LPS was treated at 1 ng/ml; IL-1α at 10 U/ml, IL-1β at 1 ng/ml, and TNFα at 20 ng/mL. A human embryonic kidney cell line (FIG. 14E) and cervical cancer cell line (FIG. 14F) were treated with human IFN-α at 150 U/ml, IFN-β and IFN-γ at 100 U/ml. The BV2 microglial cell line was stimulated with 100 U/ml of murine Interferon-γ for 14 hours to upregulate P-2 mRNA and protein. mEF treated with IFN-γ for 14 hours (mEF), or IFN-γ for 14 hours followed by 1 hour of treatment with […] MG-132 (mEF+MG132) (FIG. 14G). Human primary keratinocytes were analyzed for protein expression with indicated recombinant human IFN treatment (FIG. 14H). mEF were treated with E. coli or M. smegmatis. At indicated time points, cells were harvested and analyzed for P-2 mRNA and compared to uninfected controls by TAQMAN™ PCR. (FIG. 14I) mEF were either not stimulated, or stimulated for 14 hours with IFN-γ at 100 U/ml. After stimulation, mEF were infected with M. smegmatis and analyzed for colony forming units at indicated time points.
Recombinant murine IL-1α, IL-1β, TNFα, IFN-γ, IFN-α, IFN-β recombinant human IFN-γ, IFN-β were purchased from preprotech. Recombant human IFN-α was purchased from R&D systems. Murine […] was supplemented at 10 U/mL where indicated. Murine IL-1β was supplemented at 1 ng/ml. Murine TNFα was supplemented at 20 ng/ml. Murine IFN-α, IFN-β and IFN-γ was supplemented with 100 U/ml. Human IFN-α was supplemented where indicated in at a concentration of 150 U/ml where indicated. Human IFN-β and IFN-γ was supplemented at a concentration of 100 U/ml. LPS was added at a concentration of 1 ng/ml.
RNA was extracted from cells following RNeasy (Qiagen) instructions. One μg of RNA was converted to cDNA using QuantiTect Reverse Transcription kit (Qiagen) following supplier's protocol. qRT-PCR was performed using TAQMAN® Gene Expression Assays (Applied Biosystems) for murine Mpeg1 and GAPDH, with the later serving as a housekeeping control gene. For human tissues, human Mpeg1 and GapDH probes were utilized. All assays were performed on the Applied Biosystems 7300 PCR platform.

P-2 = P-2 expression in macrophages, BMDM/DC and microglia after LPS and IFN-γ; type: cell-based, murine; conditions: LPS and IFN-γ given together, microglia
Protocol: BMDM/DC were differentiated from murine bone marrow for 10 days in the presence GM-CSF and then stimulated with (FIG. 9A) LPS ([…]) and IFNγ (100 U/ml) or (FIG. 9B) poly(I:C) (3 mg/ml) for 48 hr. (FIG. 9C) BV2 microglial cells were stimulated for 24 hr with IFNγ (100 U/ml). (FIG. 9D) RAW cells were stimulated for 24 hr with LPS (Ing/ml) and IFNγ (100 U/ml). Cells were harvested at the indicated time points and analyzed for P-2 message expression by TAQMAN™ RT-PCR, relative to GAPDH.
RNA was extracted from cells according to RNeasy (Qiagen) instructions. 1 μg of RNA was converted to cDNA using QuantiTect Reverse Transcription Kit (Qiagen) RT-PCR was performed using TAQMAN® Gene Expression Assays (Applied Biosystems) for murine Mpeg-1 and GAPDH, as a housekeeping control gene. All assays were performed on Applied Biosystems 7300 PCR platform.

Salmonella = assay: Gentamycin protection assay: intracellular Salmonella in mEF; type: cell-based, Salmonella typhimurium; conditions: P-2 siRNA co-transfected
Protocol: (§1) Mouse rectal carcinoma CMT-93 was transiently transfected with a P-2 siRNA pool, or with P-2-RFP. Scramble siRNA or RFP were also transfected and analyzed to serve as controls for P-2 siRNA and P-2-RFP respectively. All transfections were performed 24 hours prior to infection. 14 hours prior to infection, cells were incubated with 100 U/ml of species specific IFN-γ. At indicated time points after infection, cells were lysed and plated for CFU analysis. (FIGS. 16A-16D) mEF were transfected with P-2siRNA and complemented with siRNA resistant P-2-RFP cDNA 24 hours prior to infection. 14 hours prior to infection, interferon-γ was added. mEF were infected with late log phase S. typhimurium. At indicated time points mEFs were lysed and analyzed for colony forming units. […]
(§2) S. typhimurium strain LT2Z), Mycobacterium smegmatis, methicillin-resistant Staphylococcus aureus, and E. coli strain K12 were grown from glycerol stocks at 37° C. with shaking for 24 hours in Luria broth (S. typhimurium, S. aureus, and E. coli) or Middlebrook 7H9 broth (M. smegmatis). […] At indicated time points, cells were washed with PBS, lysed using 1% Igepal in ddH2O, diluted and plated in technical triplicate on LB agar plates (S. typhimurium, S. aureus, E. coli) or Middlebrook 7H11 plates (M. smegmatis) and CFU determined after sufficient colony growth.

[1] = tested on: M avium, MRSA, S. typhimurium, E. coli and M. smegmatis; assay: Gentamycin protection assay in RAW, BV2, BMDM/DC and PEM cells; type: cell-based; conditions: transfected cells vs vector control
Protocol: Gentamicin protection assay: S. typhimurium strain LT2Z, Mycobacterium avium, Mycobacterium smegmatis (ATCC), methicllin resistant Staphylococcus aureus and K12 E. coli were grown from glycerol stocks at 37° C. with shaking for 16-18 hr in Luria broth (LB) (S. typhimurium, S. aureus, and E. coli) or Middlebrook 7H9 broth (Mycobacteria) prior to infection. For Salmonella, the culture was then diluted 1:33 in LB and grown for another 3 hours to induce invasive phenotype. Macrophages or microglial cells were plated (5×10^5 cells/well of a 12 well plate) and stimulated overnight with LPS (Ing/ml) and IFN-γ (100 U/ml). Cells were infected the next day at indicated MOI for 30 minutes (S. typhimurium,) or 1 hour (all other bacteria) in 37° C., 5% CO2 incubator. Cells were washed twice with PBS and fresh medium containing 50 μg/ml gentamicin was added. […] At the indicated timepoints after adding gentamicin, the cells were washed with PBS, lysed using 0.1% Triton-X in water, diluted and plated in triplicate on agar plates and CFU determined. […]
In addition to PEM, bone marrow-derived macrophage/dendritic cells (BMDM/BMDC) and macrophage (RAW264.7) and microglia (BV2) cell lines have potent intracellular killing mechanisms for phagocytosed MRSA, Mycobacteria, S. typhimurium, and E. coli as determined by the gentamycin protection assay (FIGS. 3A-31). […]

intracellular bacteria = assay: Gentamycin protection assay in various mouse and human cells and cell lines; type: cell-based; conditions: complementation assays
Protocol: as §1
as §2, with “growth. […]” for “growth.”

| Molecule | time to kill intracellular M. smegmatis (M. smegmatis) | P-2 mRNA induction in mEF (P-2 mRNA) | P-2 mRNA and protein expression (P-2) | complementation of endogenous P-2 knock down in mEF: killing activity (Salmonella) | effect of overexpression on intracellular killing [1] | activity of transfected fusion protein in killing of intracellular bacteria (intracellular bacteria) |
| --- | --- | --- | --- | --- | --- | --- |
| IFNγ | 1 to 5 h | up-regulates P-2 mRNA | upregulate P-2 mRNA and protein expression |  |  |  |
| B1 |  |  |  | fully reconstitutes bactericidal activity | increases bactericidal activity | functional in killing of intracellular bacteria |
